Here are results for 5 molecules from US11000033B2, “Ketone or oxime compound, and herbicide” (NISSAN CHEMICAL CORPORATION, priority 2014, dated 2021).

Holding throughout (format): in vivo
One data set has as its system soybean. Nature of the data set: Test Example 5: effect on crop by foliage application, plastic box (symbol d). The note with it: 320 g/ha, 3 weeks after application. Summed up: (§1)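 Box culture: sterile diluvial soil, seeds spot-sown, ~1.5 cm cover, raised under glass at 25–30° C.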
A further data set deals with beet. Nature of the data set: Test Example 4: effect on crop by soil treatment (symbol f). The note with it: for f: beet, effect grade on crop: 320 g/ha; for f: beet, effect on crop grade: application herbicide amount 320 g/ha. The essentials:
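Plants are raised in a greenhouse (25° C. to 30° C.) from spot-sown seed, which sits under about 1.5 cm of sterilized diluvial soil in a box shared with weed species.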

The next data set concerns corn. Nature of the data set: Test Example 5: effect on crop by foliage application, plastic box (symbol c). The following applies: 320 g/ha, 3 weeks after application. The essentials: as §1
The next data set relates to Chenopodium album. Nature of the data set: Test Example 4: herbicidal effect by soil treatment (symbol O). The essentials: (§2)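 Seeds were sown in sterilized diluvial soil, covered with about 1.5 cm of soil, and the soil surface was sprayed with a water-diluted emulsion of the compound at a predetermined rate. Plants grew in a greenhouse at 25° C. to 30° C.; effects were scored visually 3 weeks after application.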

For another data set, the system named is Avena fatua. Nature of the data set: Test Example 4: herbicidal effect by soil treatment (symbol I). The essentials:
as §2

For the next data set, the system named is Setaria viridis. Nature of the data set: Test Example 4: herbicidal effect by soil treatment (symbol G). Summed up: as §2
In another data set the test system is Abutilon theophrasti. Nature of the data set: Test Example 5: herbicidal effect by foliage application, plastic box (symbol M). The following applies: 320 g/ha, 3 weeks after application. The essentials: (§3)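 Herbicide, formulated as an emulsion and diluted in water, is sprayed onto the aerial parts of 14-day seedlings. These were grown at 25° C. to 30° C. in sterilized diluvial soil; effects are graded after 3 weeks.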

The test system of data set [1] is Monochoria vaginalis. Nature of the data set: Test Example 2: herbicidal activity, application during weed generation in submerged conditions (symbol C). The following applies: Table 23; application herbicide amount 320 g/ha; grade 0-5 by criteria of Test Example 1. Summed up: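 Steps: fill pots with alluvial soil; add water to 4 cm depth; co-sow the three weeds; grow at 25° C. to 30° C. under glass; at 1–2 leaves, dose the floodwater with diluted emulsion; rate damage visually after 3 weeks.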

A further data set concerns rapeseed. Nature of the data set: Test Example 5: effect on crop by foliage application, plastic box (symbol g). The following applies: 320 g/ha, 3 weeks after application. Summed up:
as §1

The test system of data set [2] is Echinochloa crus-galli var. crus-galli. Nature of the data set: Test Example 5: herbicidal effect by foliage application, plastic box (symbol H). The note with it: 320 g/ha, 3 weeks after application. Summed up:
as §3

Data set [3] deals with directly sowed rice plant. Nature of the data set: Test Example 3: effect on crop by foliage application, Wagner pot (symbol b). The note with it: application herbicide amount 320 g/ha. The essentials: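 Greenhouse culture at 25–30 °C of seeded rice, Cyperus difformis, Leptochloa chinensis and Echinochloa crus-galli var. crus-galli, in alluvial soil held under 0.1–0.5 cm of water in a Wagner pot.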

Data set [4] deals with Monochoria vaginalis. Nature of the data set: Test Example 1: herbicidal activity, application before weed generation in submerged conditions (symbol C). The note with it: application herbicide amount 320 g/ha. Summed up:
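Weed control was rated three weeks after treatment on a 0–5 scale, from 5% or lower up to 90% or more. Pre-emergence water-surface application of diluted emulsion at a predetermined rate was made on the day of sowing, in flooded (4 cm water) pots containing rice seedlings, kept at 25–30 °C under glass.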

The next data set concerns Apera spica-venti. Nature of the data set: Test Example 5: herbicidal effect by foliage application, plastic box (symbol L). The note with it: 320 g/ha, 3 weeks after application. The essentials: as §3
Setting [5] is: application herbicide amount 320 g/ha.

Take `CON=C(C)CC1CC(OC(=O)c2ccccc2OC(F)(F)F)=C(c2c(C)cc(C)cc2C)C1=O` (centres unmarked) [1-155]: the “d: soybean, effect on crop (criteria 0-5)” value in the data set with soybean is 3 (Herbicidal ratio of 40% or higher and lower than 70%). In addition, in the data set with beet, the “f: beet, effect grade on crop” value is reported as 0 (Herbicidal ratio of 5% or lower (almost no effect)). Also, in the data set on corn, the “c: corn, effect on crop (criteria 0-5)” value was 4 (Herbicidal ratio of 70% or higher and lower than 90%). The “O: Chenopodium album, herbicidal effect grade” value (from here on “O: Chenopodium album”) in the data set on Chenopodium album (320 g/ha) was 0 (Herbicidal ratio of 5% or lower (almost no effect)). Besides, the “I: Avena fatua, herbicidal effect grade” value in the data set with Avena fatua (320 g/ha) was 4 (Herbicidal ratio of 70% or higher and lower than 90%). The “G: Setaria viridis, herbicidal effect grade” value (shortened to “G: Setaria viridis”) in the data set on Setaria viridis (320 g/ha) was 5 (Herbicidal ratio of 90% or more (almost completely withered)). For the same molecule, the “M: Abutilon theophrasti, herbicidal effect (criteria 0-5)” value in the data set on Abutilon theophrasti is 4 (Herbicidal ratio of 70% or higher and lower than 90%). The “Herbicidal effect grade, C: Monochoria vaginalis” value (from here on “Herbicidal effect grade, C”) was 3 (Herbicidal ratio of 40% or higher and lower than 70%) in the data set with Monochoria vaginalis [1]; 1 (Herbicidal ratio of 5% or higher and lower than 20%) with Monochoria vaginalis [4]. Further, in the data set on rapeseed, the “g: rapeseed, effect on crop (criteria 0-5)” value was 4 (Herbicidal ratio of 70% or higher and lower than 90%). In [2], the “H: Echinochloa crus-galli var. crus-galli, herbicidal effect (criteria 0-5)” value is 5 (Herbicidal ratio of 90% or more (almost completely withered)). Further, the “effect on crop b (directly sowed rice plant), grade 0-5” value (“effect on crop b” for short) in data set [3] is 5 (Herbicidal ratio of 90% or more (almost completely withered)). In addition, the “L: Apera spica-venti, herbicidal effect (criteria 0-5)” value in the data set on Apera spica-venti was 5 (Herbicidal ratio of 90% or more (almost completely withered)).
With `CON=C(C)CC1CC(OC(=O)Cc2ccc(OC)cc2)=C(c2c(C)cc(C)cc2C)C1=O` (centres unmarked) [1-156], in the data set with soybean, the “d: soybean, effect on crop grade” value was 3 (Herbicidal ratio of 40% or higher and lower than 70%). In addition, the “f: beet, effect grade on crop” value with beet is 1 (Herbicidal ratio of 5% or higher and lower than 20%). Moreover, the “c: corn, effect on crop grade” value in the data set with corn is 4 (Herbicidal ratio of 70% or higher and lower than 90%). The “O: Chenopodium album” value in the data set on Chenopodium album (320 g/ha) is reported as 0 (Herbicidal ratio of 5% or lower (almost no effect)). Moreover, the “I: Avena fatua, herbicidal effect grade” value in the data set with Avena fatua (320 g/ha) was 4 (Herbicidal ratio of 70% or higher and lower than 90%). Besides, the “G: Setaria viridis” value with Setaria viridis (320 g/ha) was 5 (Herbicidal ratio of 90% or more (almost completely withered)). In the data set on Abutilon theophrasti, the “M: Abutilon theophrasti, herbicidal effect grade” value is 4 (Herbicidal ratio of 70% or higher and lower than 90%). For the same molecule, the “Herbicidal effect grade, C” value is 3 (Herbicidal ratio of 40% or higher and lower than 70%) in the data set on Monochoria vaginalis [1]; 1 (Herbicidal ratio of 5% or higher and lower than 20%) in the data set with Monochoria vaginalis [4]. Further, the “g: rapeseed, effect on crop grade” value in the data set with rapeseed was 4 (Herbicidal ratio of 70% or higher and lower than 90%). The “H: Echinochloa crus-galli var. crus-galli, herbicidal effect grade” value in data set [2] is given as 5 (Herbicidal ratio of 90% or more (almost completely withered)). Moreover, the “effect on crop b” value in [3] is on record as 5 (Herbicidal ratio of 90% or more (almost completely withered)). In addition, the “L: Apera spica-venti, herbicidal effect grade” value in the data set with Apera spica-venti is on record as 5 (Herbicidal ratio of 90% or more (almost completely withered)).
For `COC(=O)C(C(C)=O)C1CC(O)=C(c2c(C)cc(C)cc2C)C1=O` (centres unmarked) [2-003], in the data set on soybean, the “d: soybean, effect on crop grade” value is recorded as 0 (Herbicidal ratio of 5% or lower (almost no effect)). In addition, the “f: beet, effect grade on crop” value with beet is recorded as 0 (Herbicidal ratio of 5% or lower (almost no effect)). Also, the “c: corn, effect on crop grade” value in the data set with corn was 3 (Herbicidal ratio of 40% or higher and lower than 70%). Moreover, the “O: Chenopodium album” value with Chenopodium album (320 g/ha) is 0 (Herbicidal ratio of 5% or lower (almost no effect)). Further, in the data set on Avena fatua (320 g/ha), the “I: Avena fatua, herbicidal effect grade” value is 0 (Herbicidal ratio of 5% or lower (almost no effect)). For the same molecule, the “G: Setaria viridis” value in the data set on Setaria viridis (320 g/ha) is reported as 0 (Herbicidal ratio of 5% or lower (almost no effect)). Besides, the “M: Abutilon theophrasti, herbicidal effect grade” value in the data set with Abutilon theophrasti was 1 (Herbicidal ratio of 5% or higher and lower than 20%). Further, the “Herbicidal effect grade, C” value with Monochoria vaginalis [1] and with Monochoria vaginalis [4] was 0 (Herbicidal ratio of 5% or lower (almost no effect)) each time. In the data set on rapeseed, the “g: rapeseed, effect on crop grade” value is 3 (Herbicidal ratio of 40% or higher and lower than 70%). Moreover, the “H: Echinochloa crus-galli var. crus-galli, herbicidal effect grade” value in data set [2] is 5 (Herbicidal ratio of 90% or more (almost completely withered)). Also, the “effect on crop b” value in data set [3] was 4 (Herbicidal ratio of 70% or higher and lower than 90%). Moreover, in the data set on Apera spica-venti, the “L: Apera spica-venti, herbicidal effect grade” value was 4 (Herbicidal ratio of 70% or higher and lower than 90%).
For the molecule `COCC(=O)CC1CC(O)=C(c2c(C)cc(C)cc2C)C1=O` (centres unmarked) [2-007], the “d: soybean, effect on crop grade” value in the data set with soybean is 0 (Herbicidal ratio of 5% or lower (almost no effect)). Moreover, in the data set with beet, the “f: beet, effect on crop grade” value is reported as 0 (Herbicidal ratio of 5% or lower (almost no effect)). Further, the “c: corn, effect on crop grade” value in the data set with corn is 1 (Herbicidal ratio of 5% or higher and lower than 20%). Besides, the “O: Chenopodium album” value in the data set on Chenopodium album (setting [5]) is 0 (Herbicidal ratio of 5% or lower (almost no effect)). Besides, the “I: Avena fatua, herbicidal effect grade” value with Avena fatua (setting [5]) is listed as 0 (Herbicidal ratio of 5% or lower (almost no effect)). Further, the “G: Setaria viridis” value with Setaria viridis (setting [5]) was 4 (Herbicidal ratio of 70% or higher and lower than 90%). For the same molecule, the “M: Abutilon theophrasti, herbicidal effect grade” value with Abutilon theophrasti is 0 (Herbicidal ratio of 5% or lower (almost no effect)). Besides, the “Herbicidal effect grade, C” value in the data set with Monochoria vaginalis [1] and in the data set on Monochoria vaginalis [4] was 0 (Herbicidal ratio of 5% or lower (almost no effect)) each time. In the data set with rapeseed, the “g: rapeseed, effect on crop grade” value was 1 (Herbicidal ratio of 5% or higher and lower than 20%). The “H: Echinochloa crus-galli var. crus-galli, herbicidal effect grade” value in data set [2] was 1 (Herbicidal ratio of 5% or higher and lower than 20%). Moreover, the “effect on crop b” value in data set [3] is recorded as 5 (Herbicidal ratio of 90% or more (almost completely withered)). In the data set with Apera spica-venti, the “L: Apera spica-venti, herbicidal effect grade” value was 3 (Herbicidal ratio of 40% or higher and lower than 70%).
With `CCOC(=O)C(C(=O)C(C)C)C1CC(O)=C(c2c(C)cc(C)cc2C)C1=O` (centres unmarked) [2-009], the “d: soybean, effect on crop grade” value in the data set with soybean is 0 (Herbicidal ratio of 5% or lower (almost no effect)). Besides, the “f: beet, effect on crop grade” value in the data set with beet is reported as 0 (Herbicidal ratio of 5% or lower (almost no effect)). Moreover, the “c: corn, effect on crop grade” value in the data set with corn is on record as 0 (Herbicidal ratio of 5% or lower (almost no effect)). In addition, the “O: Chenopodium album” value with Chenopodium album (setting [5]) is listed as 0 (Herbicidal ratio of 5% or lower (almost no effect)). Moreover, the “I: Avena fatua, herbicidal effect grade” value in the data set with Avena fatua (setting [5]) was 0 (Herbicidal ratio of 5% or lower (almost no effect)). Further, the “G: Setaria viridis” value with Setaria viridis (setting [5]) was 0 (Herbicidal ratio of 5% or lower (almost no effect)). Further, in the data set on Abutilon theophrasti, the “M: Abutilon theophrasti, herbicidal effect grade” value was 0 (Herbicidal ratio of 5% or lower (almost no effect)). The “Herbicidal effect grade, C” value in the data set with Monochoria vaginalis [1] and with Monochoria vaginalis [4] was 0 (Herbicidal ratio of 5% or lower (almost no effect)) in each case. Moreover, the “g: rapeseed, effect on crop grade” value in the data set with rapeseed is 0 (Herbicidal ratio of 5% or lower (almost no effect)). The “H: Echinochloa crus-galli var. crus-galli, herbicidal effect grade” value in [2] is 3 (Herbicidal ratio of 40% or higher and lower than 70%). The “effect on crop b” value in [3] was 1 (Herbicidal ratio of 5% or higher and lower than 20%). Besides, in the data set on Apera spica-venti, the “L: Apera spica-venti, herbicidal effect grade” value is given as 0 (Herbicidal ratio of 5% or lower (almost no effect)).
